± gives the expanded uncertainty stated by the source.

For 4 molecules, refractive index results are on record in the NIST ThermoML archive (doi:10.1016/j.jct.2016.10.002).

Data set [1] in a line: refractive index (Na D-line) (dimensionless); xn = mol fraction of the nth substance listed. The note with it: 303.15 K, 101 kPa, Liquid, Standard Abbe refractometry.
The nature of data set [2]: refractive index (Na D-line) (dimensionless). The note with it: 303.15 K; 101.33 kPa; Liquid; Standard Abbe refractometry.

On to `C[N+](C)(C)CCO.[Cl-]` [choline chloride] + OCC(O)CO, for which the refractive index in data set [1] (x1 = 0.333) is on record as 1.4853 ± 0.0007. Regarding `C[N+](C)(C)CCO.[Cl-]` [choline chloride] + OCCO, the refractive index in data set [1] (x1 = 0.333) turned out to be 1.4691 ± 0.0007. For `O=C(O)CC(=O)O` [propanedioic acid] + C[N+](C)(C)CCO.[Cl-], the refractive index in data set [1] (x2 = 0.5) is listed as 1.4866 ± 0.0008. On to `O` [water], for which, in data set [2], the refractive index was found to be 1.332 ± 0.0007.
